The text below walks through data of PubChem BioAssay (NCI).

The structures appear in SMILES notation.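 Grown in 96-well plates, cells were treated for 48 hours with each compound at five concentrations. Insufficient inhibition: endpoint recorded as highest concentration tested. TGI marks complete inhibition of growth.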

Test systems include CCRF-CEM leukemia; EKVX NSCLC; HCT-116 colon; HCT-15 colon; MDA-MB-231 breast; MDA-N; MOLT-4 leukemia; NCI-H226 lung; NCI/ADR-RES ovarian; RPMI-8226 leukemia; SF-539 CNS; SK-MEL-2 melanoma; SK-MEL-28 melanoma; SNB-75 CNS; SR leukemia; T-47D breast; U251 CNS; UO-31 renal.
What all share (test): DTP human tumour cell line panel, 48 h

As a reminder, the TGI is the concentration giving total growth inhibition. For the compound `CC(C)(C)OC(=O)NCCNCCNc1ccccc1`, the TGI in the experiment with CCRF-CEM leukemia, in the experiment on EKVX NSCLC, with HCT-116 colon, with HCT-15 colon, in the experiment on MDA-MB-231 breast and in the experiment with MDA-N was greater than 100 µM in each case. The TGI with MOLT-4 leukemia, in the experiment on NCI-H226 lung, with NCI/ADR-RES ovarian, in the experiment with RPMI-8226 leukemia, in the experiment on SF-539 CNS and with SK-MEL-2 melanoma was greater than 100 µM each time. Also, the TGI in the experiment on SK-MEL-28 melanoma, in the experiment with SNB-75 CNS, in the experiment with SR leukemia, in the experiment with T-47D breast, in the experiment on U251 CNS and in the experiment with UO-31 renal was greater than 100 µM throughout.
`CSC1=NNC(SC)=NN1`: the total growth inhibition concentration (TGI) with CCRF-CEM leukemia was greater than 1 µM; in the experiment on EKVX NSCLC it was 0.327 µM; in the experiment with HCT-116 colon it was 0.303 µM; in the experiment with HCT-15 colon it was 0.307 µM; in the experiment on MDA-MB-231 breast, 0.458 µM; in the experiment on MDA-N it was 0.319 µM. Further, the TGI was 0.114 µM in the experiment with MOLT-4 leukemia; 0.389 µM with NCI-H226 lung; greater than 1 µM in the experiment with NCI/ADR-RES ovarian; greater than 1 µM in the experiment on RPMI-8226 leukemia; 0.413 µM in the experiment with SF-539 CNS; 0.281 µM in the experiment with SK-MEL-2 melanoma. The TGI with SK-MEL-28 melanoma worked out at 0.326 µM; in the experiment with SR leukemia it was 0.0483 µM; with T-47D breast, 0.33 µM; in the experiment with U251 CNS, 0.319 µM; in the experiment on UO-31 renal, 0.328 µM.
On to `CSc1nc2c(c(N3CCOCC3)n1)C(O)n1c(nc3ccccc31)S2` (stereo unspecified), for which the TGI with CCRF-CEM leukemia, in the experiment with EKVX NSCLC, in the experiment on HCT-116 colon, in the experiment on HCT-15 colon, in the experiment on MDA-MB-231 breast and in the experiment on MDA-N was greater than 100 µM throughout. The TGI with MOLT-4 leukemia was greater than 100 µM; in the experiment on NCI/ADR-RES ovarian, greater than 100 µM; in the experiment with RPMI-8226 leukemia, greater than 100 µM; in the experiment with SF-539 CNS, 8.77 µM; with SK-MEL-2 melanoma, greater than 100 µM; with SNB-75 CNS it was 81.9 µM. Also, the TGI in the experiment on SR leukemia, with T-47D breast, in the experiment on U251 CNS and in the experiment on UO-31 renal was greater than 100 µM each time.
On to `Cc1ccc(OCC2OC(n3cnc4c(Cl)nc(Cl)nc43)CC2Oc2ccc(C)cc2)cc1` (stereo unspecified), for which the TGI is greater than 100 µM in the experiment on CCRF-CEM leukemia; 14.9 µM in the experiment on EKVX NSCLC; 3.65 µM with HCT-116 colon; 3.27 µM in the experiment with HCT-15 colon; 3.99 µM with MDA-MB-231 breast; 3.84 µM in the experiment on MDA-N. Further, the TGI in the experiment on MOLT-4 leukemia was 4.27 µM; with NCI-H226 lung, 14.3 µM; in the experiment on NCI/ADR-RES ovarian, 4.37 µM; with SF-539 CNS, 4.04 µM; in the experiment on SK-MEL-2 melanoma, 5.26 µM; with SK-MEL-28 melanoma, 7.56 µM. In addition, the TGI in the experiment on SNB-75 CNS turned out to be 5.39 µM; in the experiment with SR leukemia, 5.17 µM; in the experiment with T-47D breast, 4.53 µM; in the experiment on U251 CNS, 4.91 µM.
As for `O=c1[nH]c(=O)n(C2CC(O)C(CO)O2)c2nc3ccc4cc5ccccc5cc4c3nc12` (stereo unspecified), the TGI in the experiment on CCRF-CEM leukemia, with EKVX NSCLC, with HCT-116 colon, in the experiment on HCT-15 colon, with MDA-MB-231 breast and in the experiment on MDA-N was greater than 100 µM each time. Further, the TGI in the experiment on MOLT-4 leukemia, in the experiment on NCI-H226 lung, in the experiment on NCI/ADR-RES ovarian, in the experiment with RPMI-8226 leukemia, in the experiment with SF-539 CNS and in the experiment with SK-MEL-2 melanoma was greater than 100 µM throughout. Further, the TGI in the experiment on SK-MEL-28 melanoma, in the experiment with SNB-75 CNS, with SR leukemia, in the experiment on T-47D breast, with U251 CNS and in the experiment on UO-31 renal was greater than 100 µM each time.
For the compound `COc1cc(/C=C\c2nnc(/C=C\c3ccc(O)c(OC)c3)s2)ccc1O`, the TGI in the experiment on CCRF-CEM leukemia was 14.5 µM; in the experiment on EKVX NSCLC it was 18.4 µM; in the experiment on HCT-116 colon it was 14 µM; in the experiment with HCT-15 colon, 18.1 µM; with MDA-MB-231 breast, greater than 57.5 µM; in the experiment on MDA-N, 16.4 µM. Besides, the TGI in the experiment with MOLT-4 leukemia was 10.7 µM; in the experiment on NCI-H226 lung it was 39 µM; in the experiment with NCI/ADR-RES ovarian it was 14.2 µM; in the experiment with SF-539 CNS it was greater than 26.4 µM; in the experiment with SK-MEL-2 melanoma it was 26 µM; in the experiment with SK-MEL-28 melanoma it was greater than 100 µM. For the same compound, the TGI in the experiment on SNB-75 CNS came out at 8.83 µM; in the experiment on SR leukemia, 7.37 µM; with T-47D breast it was 7.38 µM; with U251 CNS, 17.1 µM; in the experiment on UO-31 renal, 15.3 µM.
Take `NC(=O)SCCC(N)C(=O)O` (stereo unspecified): the TGI in the experiment with CCRF-CEM leukemia, in the experiment on EKVX NSCLC, in the experiment on HCT-116 colon, with HCT-15 colon, in the experiment with MDA-MB-231 breast and with MDA-N was greater than 100 µM in each case. For the same compound, the TGI in the experiment on MOLT-4 leukemia, in the experiment with NCI-H226 lung, with NCI/ADR-RES ovarian, in the experiment with RPMI-8226 leukemia, in the experiment with SF-539 CNS and with SK-MEL-2 melanoma was greater than 100 µM each time. Moreover, the TGI in the experiment on SK-MEL-28 melanoma, in the experiment on SNB-75 CNS, with SR leukemia, in the experiment with T-47D breast, in the experiment with U251 CNS and in the experiment with UO-31 renal was greater than 100 µM each time.
In the case of `CN(C)c1ccc(C2CC(c3ccc4ccccc4c3O)=NN2c2ccc([N+](=O)[O-])cc2[N+](=O)[O-])cc1` (stereo unspecified), the TGI in the experiment on CCRF-CEM leukemia is 94.3 µM; with HCT-116 colon it was greater than 100 µM; in the experiment on HCT-15 colon it was greater than 100 µM; with MDA-MB-231 breast, greater than 100 µM; in the experiment on MDA-N, 30.5 µM; in the experiment with MOLT-4 leukemia it was 94.5 µM. Moreover, the TGI in the experiment on NCI-H226 lung, in the experiment on NCI/ADR-RES ovarian, in the experiment with SF-539 CNS, with SK-MEL-2 melanoma, in the experiment with SK-MEL-28 melanoma and with SNB-75 CNS was greater than 100 µM throughout. The TGI in the experiment on SR leukemia was 51.3 µM; with T-47D breast, greater than 100 µM; with U251 CNS, greater than 100 µM; in the experiment on UO-31 renal, greater than 100 µM.
